Data reported in patent publication US20250032580A1, “USE OF ADNF POLYPEPTIDES IN THERAPY” (RAMOT AT TEL-AVIV UNIVERSITY LTD., priority 2021, published 2025).

Assays:
[1] = tested on: differentiated N1E-115 cells; experiment: Live imaging of EB3 comet-like structures (MT dynamics); format: cell-based, mouse
Method: Cell culture—Mouse neuroblastoma NIE-115 cells were maintained in Dulbecco's modified Eagle's medium, 10% fetal bovine serum, 2 mM glutamine and 100 U ml—1 penicillin, […] ml—1 streptomycin (Biological Industries, Beit Haemek, Israel). The cells were incubated in 95% air/5% CO2 in a humidified incubator at 37° C.
Cell differentiation and co-transfection of overexpression plasmids—Cultured NIE-115 cells were plated on 35 mm dishes (81156, 60μ-Dish, Ibidi, Martinsried, Germany) at a concentration of 1.25×10^4 cells per dish and then were differentiated with reduced fetal bovine serum (2%) and DMSO (1.25%) containing medium for 5 days before transfection. 48 hrs before experiments N1E-115 cells were co-transfected with 1 μg EB3-RFP or mCherry-Tau (3R) plasmid with or without 2 μg of plasmids, coding to GFP conjugated to full-length human ADNP, or ADNP carried mutations. 1:3 ratios between total amount of transfected DNA and transfection reagent were used according to manufacture guidance (Lipofectamine2000, Thermo Fisher Scientific, Waltham, MA, USA) in all subsequent experiments.
Live Imaging—48 hrs after transfection, differentiated NIE-115 cells (expressing EB3-RFP with or without GFP-conjugated to full-length ADNP or mutated ADNP) were incubated at 37° C. with a 5% CO2/95% air mixture in a thermostatic chamber placed on the stage of a Leica TCS SP5 confocal microscope (objective 100× (PL Apo) oil immersion, NA 1.4). Time-lapse images were automatically captured 3 sec during 1 min, using the Leica LAS AF software. After imaging all samples were also treated with NAP (SEQ ID NO: 2) or SKIP (SEQ ID NO: 21) in final concentrations of 10^−12 M, and after 4 hrs time-lapse imaging was done again under the same conditions. Data was collected and analyzed by Imaris software.
To evaluate the effect of ADNP truncated proteins on MT dynamics time-lapse imaging of EB3 comet-like structures formed by RFP-tagged EB3 proteins that bind to MT plus-ends was performed. Two parameters of EB3 activity were used to assess MT dynamics—track length and track speed of EB3 comets, which reflect the length of freshly growing MTs and the speed of MT assembly, respectively. Furthermore, the present inventors aimed to determine whether NAP (10^−12 M for 4 hrs) could prevent the deleterious effect of ADNP mutations.

BTBR mouse = experiment: Social recognition test; format: in vivo; conditions: BTBR idiopathic autism mouse, FIG. 14
N1E-115 cells = experiment: Polymerized vs. soluble tubulin assay; format: cell-based, mouse; conditions: zinc 400 μM, 4 h, peptide 10^−12 M
Method: Polymerized vs. soluble tubulin assay—To quantify tubulin polymerization and Tau-MT association, a simple assay was performed as previously described. The cells grown to confluence in six-well plates were washed with MT buffer (80 mM PIPES pH 6.8, 1 mM MgCl^2, 2 mM EGTA, 5% Glycerol) and lysed at room temperature for 5 min through centrifugation (300 g), with 150 μl of MT buffer with 0.5% Triton X-100 to extract soluble (cytosolic) tubulin (S). The pelleted cells were rinsed once again with an equal volume of modified RIPA lysis buffer (50 mM Tris-HCL pH 7.4, 150 mM NaCl, 2 mM EGTA, 1% Triton X-100, 0.1% SDS, 0.1% sodium Deoxycholate) to collect the polymerized (cytoskeletal) tubulin (P). The cytosolic and cytoskeletal fractions were each mixed with sample buffer and heated at 95° C. for 5 min. An equal volume of each fraction was analyzed by immunoblotting with Tau, tubulin and actin antibodies, and the results following ECL development were quantified by densitometry (GelQuant.NET software provided by biochemlabsolutions(dot)com).
It is known that in the presence of extracellular zinc NAP protects MT against degradation by promoting Tau binding to the MT shaft. Polymerized vs. soluble tubulin assay was effected to compare protective activities of NAP and SKIP against MT degradation and Tau-MT dissociation (FIGS. 11F-G). After treatments with zinc (400 μM, 4 h) with and without NAP or SKIP (10^−12 M, 4 h) the cellular-tubulin pool was separated into polymerized and soluble tubulin fractions. The amount of Tau, tubulin, and actin was identified by immunoblotting (FIG. 11F), followed by densitometric quantification (FIG. 11G).

Adnp+/− mouse = tested on: Adnp+/− mouse; parameters: key: corrections by NAP treatment (+); conditions: second symbol of cell, cited from earlier work
[2] = tested on: SHANK3 mouse model (InsG3680 mutation); experiment: Open field behavior; format: in vivo; conditions: intranasal, once daily, five days a week for a month
Method: To this end, mice with the ASD-linked InsG3680 mutation were used. Two behavioral assessments were performed on make mice: • 1) Open field behavior attesting to anxiety and depression (Open field behavioral assessment technology was previously described, e.g.); and • 2) Social recognition behavior, related to autistic traits (the social recognition test was previously described, e.g..
This surprising finding is of importance as there is a psychiatric illness and regression in individuals with Phelan-McDermid syndrome.

Tyr mice = experiment: RNA seq of mouse spleens; format: in vivo; parameters: key to NAP efficacy: gene expression patterns: corrections by NAP treatment (+)
Method: RNA seq—Total RNA was extracted from 14-week-old mouse spleens and sequenced using standard methods on NextSeq500 system (Illumina) as detailed. Data were analyzed as previously described (9).

CC[C@H](C)[C@H](NC(=O)[C@H](CO)NC(=O)[C@@H](NC(=O)[C@@H]1CCCN1C(=O)[C@H](C)NC(=O)[C@@H](N)CC(N)=O)C(C)C)C(=O)N1CCC[C@H]1C(=O)N[C@@H](CCC(N)=O)C(=O)O [NAP, NAPVSIPQ]
Difference between effects of NAP and SKIP on EB3 track length and speed ([1]; 10^−12 M, 4 hrs): no significant differences
Speed and track length of EB3 comets ([1]; cells expressing ADNP p.Glu830synfs*83, 10^−12 M, 4 hrs): significantly augmented
EB3 comet speed ([1]; cells expressing ADNP p.Lys408Valfs*31, 10^−12 M, 4 hrs): significantly augmented
EB3 activity (track length and comet speed) ([1]; cells expressing ADNP p.Lys408Valfs*31 SDM, 10^−12 M, 4 hrs): recovered EB3 activity to the control level
Speed and track length of EB3 comets ([1]; cells expressing ADNP p.Ser404*, 10^−12 M, 4 hrs): significantly augmented
EB3 comet track length and speed ([1]; cells overexpressing full-length ADNP, 10^−12 M, 4 hrs): did not further influence
EB3 track length and speed compared to non-treated control ([1]; no ADNP plasmid, 10^−12 M, 4 hrs): increased EB3 track length and speed
MT activities in the face of all ADNP mutations ([1]; summary of results): normalized MT activities
Effects on social recognition (preference of the mouse rather than the cup) (BTBR mouse): also observed
Protection against Tau dissociation from MTs (N1E-115 cells): only NAP exhibited protection
Protection of polymerized tubulin against zinc-induced decay (N1E-115 cells): protected against zinc-induced decay
NAP efficacy: cognitive impairments, behavioral deficits (Adnp+/− mouse; Adnp+/− mouse (8)): +(odor)/+(8)
NAP efficacy: axonal transport (Adnp+/− mouse; Adnp+/− mouse): +/+
NAP efficacy: gene expression patterns (Adnp+/− mouse; Adnp+/− mouse): +/+
NAP efficacy: global developmental delays (Adnp+/− mouse; Adnp+/− mouse): +/+
NAP efficacy: microbiota (Adnp+/− mouse; Adnp+/− mouse): +/+
NAP efficacy: motor impediments (Adnp+/− mouse; Adnp+/− mouse): +/(gait)+
NAP efficacy: short stature (Adnp+/− mouse; Adnp+/− mouse): +
NAP efficacy: speech impediments (Adnp+/− mouse; Adnp+/− mouse): +/+ (syntax)
NAP efficacy: synaptic structural alterations (Adnp+/− mouse; Adnp+/− mouse): +/+
NAP efficacy: tauopathy, hyperphosphorylated Tau deposits (Adnp+/− mouse; Adnp+/− mouse): +/+
Cumulative duration in the center (open field) [2]: significantly increased
Genotype/NAP effect on splenic gene expression (Tyr mice; Tyr mice, males vs females): very minor genotype/NAP effect on males, and a more comprehensive effect on females
NAP efficacy: gene expression patterns (Tyr mice; Tyr mouse, first symbol of cell): +/+
Number of RNA transcripts affected by the Tyr Adnp mutation, corrected by NAP treatment (Tyr mice; female spleens): 89
Number of RNA transcripts affected by the Tyr Adnp mutation, corrected by NAP treatment (Tyr mice; male spleens): 13
